According to publication PMC10600247, “Impact of C- and N-terminal protection on the stability, metal chelation and antimicrobial properties of calcitermin” (Scientific Reports, 2023):
Residues, ends and D or L forms follow the SMILES beside them.

Experiments:
[1] = Text: Stability constants for proton and metal complexes were obtained from pH-metric titration curves registered at T = 298 K and ionic strength 0.1 M (KCl). The potentiometric apparatus was previously described. Solutions were titrated with 0.1 M carbonate-free KOH. The electrode was daily calibrated for hydrogen ion concentration by titrating HNO3 with the standard base solution, under the same experimental conditions as above. The asymmetry potential and the slope of the electrode couple were computed by means of […][41] and Glee[42] programs. The purities and exact concentrations of the ligand solutions were determined by the Gran method. The […][44] program was employed for the overall formation constant (β) calculations, referred to the following equilibrium equation: pM + qL + rH ⇆ MpLqHr (charges omitted; p is 0 in the case of ligand protonation; r can be negative). The computed standard deviations (referring to random errors only) were given by the program itself and are shown in parentheses as uncertainties on the last significant figure. Hydrolysis constants for metal ions were taken from the literature[45],[46]. The distribution and competition diagrams were computed using the HYSS program.
1. Wild-type calcitermin: thermodynamic data
Wild-type calcitermin (WT) has been previously investigated by our research group in aqueous solutions and ionic medium NaClO4.1 For the sake of comparison, potentiometric studies of WT and its copper and zinc complexes have been performed in a different ionic medium (KCl 0.1 M). The study of the speciation under different experimental conditions, changing ionic medium and metal-ligand ratio, is essential to comprehensively describe the thermodynamics of calcitermin, which is usually found in multicomponent media like biological fluids.
Table S1. Equilibrium constants for protonation of WT and its Cu2+ and Zn2+ complex formation at T = 298 K and I = 0.1 M (KCl). Values in parentheses are standard deviations on the last significant figure.

S. aureus (ATCC 25293) = assay: In vitro anti-S. aureus CFU assay; type: cell-based, Staphylococcus aureus; conditions: 3 h, pH 5.4; for mean CFU number ± S.D.: per 0.1 mL
Method: All microbes were grown at 37 °C in Tryptic Soy Broth (TSB; Biolife, Milan, Italy) or Tryptic Soy Agar plates (TSA, Biolife, Milan, Italy). Peptides were tested at a final concentration C = 0.128, 0.064, 0.032 mg/mL, in the presence or absence of ZnCl2 or CuCl2, at a M:L molar ratio 0.9:1. Briefly, all the microbes were expanded in TSB at 37 °C under agitation for 12 h and then sub-cultured by 1:10 dilution in TSB under the same conditions until reaching OD600nm = 0.3–0.4, as measured by spectrophotometric reading using a GENESYS 10S UV–Vis spectrophotometer (Thermo Scientific, Milan, Italy), corresponding to 0.9–1.2 × 10^7 colony forming units (CFU) per mL, 1.5–2 × 10^8 CFU/mL and 2.4–3.2 × 10^8 CFU/mL, for C. albicans, S. aureus and E. coli respectively. The cultures were then centrifuged at 4500 rpm for 10 min in a SL 8 centrifuge (TX-150 Rotor) (Thermo Scientific, Milan, Italy), and the cellular pellets were washed with PBS pH 5.4. Pelletized cultures were then suspended in 10 mL of PBS pH 5.4, then the suspensions were diluted to a final concentration of 10^4 CFU/mL. Aliquots of 100 µl (corresponding to 10^3 CFU) were seeded in each well of a 96-wells plate. 3 µl of TSB at pH 5.4 were added to each well to obtain a final 1.5% TSB concentration in the culture medium. Peptides were serially diluted in PBS pH 5.4 to C = 0.257, 0.128, and 0.064 mg/mL. ZnCl2 and CuCl2 solutions were added where requested to obtain a M:L ratio 0.9:1. 100 µl of the prepared peptides ± ZnCl2/CuCl2 solutions were then added to each well, obtaining the final 0.128, 0.064 and 0.032 mg/mL peptide concentrations in a total 0.2 mL volume. PBS alone and PBS + ZnCl2/CuCl2 solutions were included as controls. The plates were incubated at 37 °C on a platform rocker with slow stirring for 3 and 24 h. At the end of the incubation times, 100 µl aliquots were taken from each sample and diluted in PBS pH 5.4 to be seeded on TSA plates. Specifically, aliquots were diluted 1:10 at 3 h, and 1:200, 1:100,000 and 1:10 at 24 h, for C. albicans, E. coli, and S. aureus respectively. After incubation for 24 h at 37 °C, grown CFUs were enumerated. Samples were assayed in triplicate in two independent experiments. Student’s t-test was used for the evaluation of significance in biological tests; a p value ≤ 0.05 was considered significant.

[2] = T = 298 K, I = 0.1 M (KCl), charges omitted
[3] = peptide 0.032 mg/mL + CuCl2 (0.9:1)
[4] = peptide 0.032 mg/mL + ZnCl2 (0.9:1)
[5] = peptide 0.064 mg/mL + CuCl2 (0.9:1)
[6] = peptide 0.064 mg/mL + ZnCl2 (0.9:1)
[7] = peptide 0.128 mg/mL + CuCl2 (0.9:1)
[8] = peptide 0.128 mg/mL + ZnCl2 (0.9:1)

SMILES	pKa [CuH2L] [1]	pKa [CuH-1L] [1]	pKa [CuHL] [1]	pKa [CuL] [1]	pKa [ZnHL] [1]	pKa [ZnL] [1]	logβ [CuH2L] [1, 2]	logβ [CuH-1L] [1, 2]	logβ [CuHL] [1, 2]	logβ [CuL] [1, 2]	logβ [ZnHL] [1, 2]	logβ [ZnL] [1, 2]	CFU decrease/increase with respect to untreated controls (S. aureus (ATCC 25293); [3])	mean CFU number ± S.D. (S. aureus (ATCC 25293); [3])	CFU decrease/increase with respect to untreated controls (S. aureus (ATCC 25293); [4])	mean CFU number ± S.D. (S. aureus (ATCC 25293); [4])	CFU decrease/increase with respect to untreated controls (S. aureus (ATCC 25293); [5])	mean CFU number ± S.D. (S. aureus (ATCC 25293); [5])	CFU decrease/increase with respect to untreated controls (S. aureus (ATCC 25293); [6])	mean CFU number ± S.D. (S. aureus (ATCC 25293); [6])	other results
CC[C@H](C)[C@H](NC(=O)[C@H](C)NC(=O)[C@@H](NC(C)=O)C(C)C)C(=O)N[C@@H](C)C(=O)N[C@@H](CC(C)C)C(=O)N[C@@H](CCCCN)C(=O)N[C@@H](C)C(=O)N[C@@H](C)C(=O)N[C@@H](Cc1c[nH]cn1)C(=O)N[C@@H](Cc1ccc(O)cc1)C(=O)N[C@@H](Cc1c[nH]cn1)C(=O)N[C@H](C(=O)N[C@@H](Cc1c[nH]cn1)C(=O)N[C@@H](CCCCN)C(=O)N[C@@H](CCC(=O)O)C(=O)O)[C@@H](C)O [L1, Ac-VAIALKAAHYHTHKE] (Ac-VAIALKAAHYHTHKE-OH)	4.40	6.88	5.38	6.59	5.80	7.33	18.21(3)	1.84(3)	13.81(2)	8.43(2)	11.00(5)	5.21(2)	+20%	193 ± 54 CFU	+14%	183 ± 24 CFU	+37%	221 ± 66 CFU	+19%	191 ± 6 CFU	CFU decrease/increase with respect to untreated controls (S. aureus (ATCC 25293); [7]): +3%; mean CFU number ± S.D. (S. aureus (ATCC 25293); [7]): 166 ± 35 CFU; mean CFU number ± S.D. (S. aureus (ATCC 25293); [8]): 87 ± 8 CFU; CFU decrease/increase with respect to untreated controls (S. aureus (ATCC 25293); peptide alone 0.032 mg/mL): +34%; mean CFU number ± S.D. (S. aureus (ATCC 25293); peptide alone 0.032 mg/mL): 215 ± 68 CFU; CFU decrease/increase with respect to untreated controls (S. aureus (ATCC 25293); peptide alone 0.064 mg/mL): -4%; mean CFU number ± S.D. (S. aureus (ATCC 25293); peptide alone 0.064 mg/mL): 155 ± 31 CFU; CFU decrease/increase with respect to untreated controls (S. aureus (ATCC 25293); peptide alone 0.128 mg/mL): +31%; mean CFU number ± S.D. (S. aureus (ATCC 25293); peptide alone 0.128 mg/mL): 211 ± 49 CFU
CC[C@H](C)[C@H](NC(=O)[C@H](C)NC(=O)[C@@H](NC(C)=O)C(C)C)C(=O)N[C@@H](C)C(=O)N[C@@H](CC(C)C)C(=O)N[C@@H](CCCCN)C(=O)N[C@@H](C)C(=O)N[C@@H](C)C(=O)N[C@@H](Cc1c[nH]cn1)C(=O)N[C@@H](Cc1ccc(O)cc1)C(=O)N[C@@H](Cc1c[nH]cn1)C(=O)N[C@H](C(=O)N[C@@H](Cc1c[nH]cn1)C(=O)N[C@@H](CCCCN)C(=O)N[C@@H](CCC(=O)O)C(N)=O)[C@@H](C)O [L2, Ac-VAIALKAAHYHTHKE-NH2] (Ac-VAIALKAAHYHTHKE-NH2)	5.49	9.44	6.30	6.70	7.63	8.93	23.06(4)	4.57(6)	17.57(5)	11.27(7)	14.15(4)	6.52(5)	-17%	129± 41 CFU	0%	177 ± 11 CFU	-18%	127 ± 30 CFU	-17%	147 ± 16 CFU	pKa [CuH-2L] [1]: 9.91; pKa [ZnH2L] [1]: 6.14; pKa [ZnH-1L] [1]: 9.44; logβ [ZnH2L] [1, 2]: 20.29(6); CFU decrease/increase with respect to untreated controls (S. aureus (ATCC 25293); [7]): +6%; mean CFU number ± S.D. (S. aureus (ATCC 25293); [7]): 194 ± 4 CFU; mean CFU number ± S.D. (S. aureus (ATCC 25293); [8]): 82 ± 16 CFU; CFU decrease/increase with respect to untreated controls (S. aureus (ATCC 25293); peptide alone 0.032 mg/mL): -12%; mean CFU number ± S.D. (S. aureus (ATCC 25293); peptide alone 0.032 mg/mL): 157 ± 35 CFU; CFU decrease/increase with respect to untreated controls (S. aureus (ATCC 25293); peptide alone 0.064 mg/mL): +14%; mean CFU number ± S.D. (S. aureus (ATCC 25293); peptide alone 0.064 mg/mL): 201 ± 40 CFU; CFU decrease/increase with respect to untreated controls (S. aureus (ATCC 25293); peptide alone 0.128 mg/mL): +21%; mean CFU number ± S.D. (S. aureus (ATCC 25293); peptide alone 0.128 mg/mL): 213 ± 23 CFU
